Target: T1, yeast HSP90 (Saccharomyces cerevisiae, UniProt P02829)
T1 construct: made in house; host or cells: E. coli
T1 sequence (P02829 whole entry): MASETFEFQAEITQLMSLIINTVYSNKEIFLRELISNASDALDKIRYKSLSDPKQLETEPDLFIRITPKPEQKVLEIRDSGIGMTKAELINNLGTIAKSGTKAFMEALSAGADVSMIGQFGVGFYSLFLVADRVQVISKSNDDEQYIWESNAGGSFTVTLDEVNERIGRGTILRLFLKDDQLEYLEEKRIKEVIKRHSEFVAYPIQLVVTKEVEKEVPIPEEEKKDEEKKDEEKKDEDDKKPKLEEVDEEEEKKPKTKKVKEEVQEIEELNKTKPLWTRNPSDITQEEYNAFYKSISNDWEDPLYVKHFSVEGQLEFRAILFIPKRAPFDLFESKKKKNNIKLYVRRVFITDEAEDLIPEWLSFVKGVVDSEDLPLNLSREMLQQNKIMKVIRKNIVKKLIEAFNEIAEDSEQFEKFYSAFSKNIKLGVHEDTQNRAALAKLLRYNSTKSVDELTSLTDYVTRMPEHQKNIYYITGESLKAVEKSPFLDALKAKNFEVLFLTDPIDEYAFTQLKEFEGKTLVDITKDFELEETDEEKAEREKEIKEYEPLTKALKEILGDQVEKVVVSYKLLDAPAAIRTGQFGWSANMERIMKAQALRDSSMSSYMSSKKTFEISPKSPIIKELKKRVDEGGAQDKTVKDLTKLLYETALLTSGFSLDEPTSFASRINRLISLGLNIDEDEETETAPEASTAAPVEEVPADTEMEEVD
Test: Malachite green ATPase assay
Format: biochemical
Conditions: activity range
Excerpt: The intrinsic ATPase activity of HSP90 may be measured using yeast HSP90 as a model system. The assay, based on the use of malachite green for the measurement of inorganic phosphate, was used to test the HSP90 inhibitory activity of the compounds of the Examples herein.
Malachite Green ATPase Assay
Chemicals are of the highest purity commercially available and all aqueous solutions are made up in AR water. Because of the need to minimise contamination with inorganic phosphate, precautions should be taken with solutions and apparatus used in the assays. Glassware and pH meters are rinsed with double distilled or deionised water before use and, wherever possible, plastic ware should be used. Gloves are worn for all procedures. • (1) Greiner 384-well (Greiner 781101) or Costar 384-well flat-bottomed polystyrene multiwell plates (VWR). • (2) Assay buffer of (a) 100 mM Tris-HCl, pH 7.4, (b) 150 mM KCl, (c) 6 mM MgCl2. Stored at room temperature. • (3) 0.0812% (w/v) malachite green (M 9636, Sigma Aldrich Ltd., Poole, UK). Stored at room temperature. • (4) 2.32% (w/v) polyvinyl alcohol USP (P 1097, Sigma Aldrich Ltd, Poole, UK) in boiling water (see Comment 1), allowed to cool, and stored at room temperature. • (5) 5.72% (w/v) ammonium molybdate in 6 M hydrochloric acid. Stored at room temperature. • (6) 34% (w/v) sodium citrate. Stored at room temperature. • (7) 100 mM ATP, disodium salt, special quality (47699, Sigma Aldrich). Stored at −20° C. • (8) E. coli expressed yeast HSP90 protein, purified >95% (see, e.g., Panaretou et al., 1998) and stored in 50 uL aliquots at −80° C.
Method • 1. Dilute test compounds to 500 μM in AR water (DMSO concentration will be 2.5%). Transfer 2.5 μl of these compounds directly from the daughter plate to the assay plate, giving a final assay concentration of 100 μM. To obtain 12 point IC50 values, perform serial dilutions 1:2 to produce a range of assay concentrations from 100 μM to 97.6 nM (2.5% DMSO), and transfer 2.5 μl of each concentration into the assay plate. Column 1 in the assay plate contains no compound, as a negative control. An additional row with no compound is also used as a background. • 2. Prepare ATP by diluting 100 mM stock to 925 μM with assay buffer, and aliquot 5 μl of diluted ATP to each well including controls (final assay concentration 370 μM). • 3. Add 5 μl of buffer to background row. • 4. Dilute enzyme preparation to 1.05 μM with assay buffer, and aliquot 5 μl into each compound well and to the negative control column. • 5. Collect the reagents to the bottom of the well, cover plate with plate seal and incubate overnight at 37 degC. • 6. First thing in the morning prepare the Malachite Green Reagent. Add 2 parts of Malachite Green Solution, 1 part of Polyvinyl Alcohol Solution, 1 part of Ammonium Molybdate Solution, and 2 parts of AR water. • 7. Invert to mix, and leave for approximately 1 hour until the colour turns from brown to golden yellow. • 8. Add 40 μl of Malachite Green Reagent to each well, allow 5 mins for colour to develop. • 9. Add 5 μl of Sodium Citrate Reagent to each well (see comment 2) • 10. Re-cover with plate seal and shake on plate shaker for at least 15 mins. • 11. Measure Absorbance at 620 nm using a suitable plate reader (e.g. Victor, Perkin Elmer Life Sciences, Milton Keynes, UK).
Comments • (1) The polyvinyl alcohol dissolves in boiling water with difficulty and stirring for 2-3 h is required. • (2) The time interval between addition of the malachite green reagent and the sodium citrate should be kept as short as possible in order to reduce the non-enzymatic hydrolysis of ATP. Once the sodium citrate is added, the colour is stable for up to 4 h at room temperature. • (3) Compounds can be added to the assay plates using a Biomek FX Robot (Beckman Coulter).
Work on Oc1cc(O)c(-c2n[nH]cc2N2CCNCC2)cc1Cl [Example 2, 4-Chloro-6-(4-piperazin-1-yl-1H-pyrazol-3-yl)-benzene-1,3-diol] yielded an IC50 of under 50 µM.
Work on Cc1ccc(C)c(CCc2cc(-c3n[nH]cc3N3CCNCC3)c(O)cc2O)c1 [Example 74] yielded an IC50 of under 50 µM.
For Cc1ccccc1CCc1cc(-c2n[nH]cc2N2CCNCC2)c(O)cc1O [Example 75], the IC50 was under 50 µM.
Work on COc1ccc(CCc2cc(-c3n[nH]cc3N3CCNCC3)c(O)cc2O)cc1 [Example 76] yielded an IC50 of under 50 µM.
Oc1cc(O)c(-c2n[nH]cc2N2CCC(NCc3ccccc3)CC2)cc1Br [Example 79] gave an IC50 of under 50 µM.
Work on Oc1cc(O)c(-c2n[nH]cc2N2CCC(NCc3ccc(F)cc3)CC2)cc1Br [Example 80] yielded an IC50 of under 50 µM.
COc1ccc(CNC2CCN(c3c[nH]nc3-c3cc(Br)c(O)cc3O)CC2)cc1 [Example 81] showed an IC50 of under 50 µM.
For Oc1cc(O)c(-c2n[nH]cc2N2CCC(NCc3ccc(Cl)cc3)CC2)cc1Br [Example 82], the IC50 was under 50 µM.
With Oc1cc(O)c(-c2n[nH]cc2N2CCC(NCc3ccc4c(c3)OCO4)CC2)cc1Br [Example 83] the IC50 was under 50 µM.
In the case of O=[N+]([O-])c1ccc(CNC2CCN(c3c[nH]nc3-c3cc(Br)c(O)cc3O)CC2)cc1 [Example 84], the IC50 is reported as under 50 µM.
With Oc1cc(O)c(-c2n[nH]cc2N2CCC(NCc3ccc(Br)cc3)CC2)cc1Br [Example 85] the IC50 was under 50 µM.
Compound NS(=O)(=O)c1ccc(CNC2CCN(c3c[nH]nc3-c3cc(Br)c(O)cc3O)CC2)cc1 [Example 86] has an IC50 of under 50 µM.
With CCNC1CCN(c2c[nH]nc2-c2cc(Br)c(O)cc2O)CC1 [Example 97] the IC50 was under 50 µM.
With OCCNC1CCN(c2c[nH]nc2-c2cc(Br)c(O)cc2O)CC1 [Example 98] the IC50 was under 50 µM.

Target: T2, human full-length HSP90 (Homo sapiens, UniProt P08238)
T2 construct: E. coli expressed human full-length HSP90 protein; made in house; host or cells: E. coli
T2 sequence (P08238 whole entry): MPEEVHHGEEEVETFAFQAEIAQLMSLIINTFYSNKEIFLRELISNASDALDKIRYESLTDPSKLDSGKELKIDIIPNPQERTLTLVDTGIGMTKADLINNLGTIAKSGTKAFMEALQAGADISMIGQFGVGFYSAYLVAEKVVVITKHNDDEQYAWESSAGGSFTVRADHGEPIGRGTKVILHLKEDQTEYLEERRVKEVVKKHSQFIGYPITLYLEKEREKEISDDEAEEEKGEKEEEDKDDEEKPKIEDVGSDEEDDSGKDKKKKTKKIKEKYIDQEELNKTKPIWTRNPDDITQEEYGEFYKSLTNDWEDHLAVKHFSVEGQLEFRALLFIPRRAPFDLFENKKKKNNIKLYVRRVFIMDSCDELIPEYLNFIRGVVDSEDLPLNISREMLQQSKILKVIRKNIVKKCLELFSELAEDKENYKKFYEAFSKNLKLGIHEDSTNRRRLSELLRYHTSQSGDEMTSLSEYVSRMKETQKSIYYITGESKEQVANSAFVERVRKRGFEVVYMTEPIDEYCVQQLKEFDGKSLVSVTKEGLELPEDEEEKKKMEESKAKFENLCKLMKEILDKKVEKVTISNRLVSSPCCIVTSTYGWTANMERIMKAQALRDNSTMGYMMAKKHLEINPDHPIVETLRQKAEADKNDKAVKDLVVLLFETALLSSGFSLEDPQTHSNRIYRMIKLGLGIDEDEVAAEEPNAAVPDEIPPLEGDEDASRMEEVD
Test: Fluorescence polarization (FP) binding assay
Conditions: FP assay (asterisk in table), activity range
Excerpt: Fluorescence Polarization Assay
Fluorescence polarization {also known as fluorescence anisotropy} measures the rotation of a fluorescing species in solution, where the larger molecule the more polarized the fluorescence emission. When the fluorophore is excited with polarized light, the emitted light is also polarized. The molecular size is proportional to the polarization of the fluorescence emission.
The fluoroscein-labelled probe—RBT0045864-FAM—
[drawing 121] binds to HSP90 {full-length human, full-length yeast or N-terminal domain HSP90} and the anisotropy {rotation of the probe:protein complex} is measured.
Test compound is added to the assay plate, left to equilibrate and the anisotropy measured again. Any change in anisotropy is due to competitive binding of compound to HSP90, thereby releasing probe.
Chemicals are of the highest purity commercially available and all aqueous solutions are made up in AR water. • 1) Costar 96-well black assay plate #3915 • 2) Assay buffer of (a)100 mM Tris pH7.4; (b) 20 mM KCl; (c) 6 mM MgCl2. Stored at room temperature. • 3) BSA (bovine serum albumen) 10 mg/ml (New England Biolabs # B9001S) • 4) 20 mM probe in 100% DMSO stock concentration. Stored in the dark at RT. Working concentration is 200 nM diluted in AR water and stored at 4° C. Final concentration in assay 80 nM. • 5) E. coli expressed human full-length HSP90 protein, purified >95% (see, e.g., Panaretou et al., 1998) and stored in 50 μL aliquots at −80° C.
Protocol • 1) Add 100 μl 1× buffer to wells 11 A and 12A (=FP BLNK) • 2) Prepare assay mix—all reagents are kept on ice with a lid on the bucket as the probe is light-sensitive.
• 3) Aliquot 100 μl assay mix to all other wells • 4) Seal plate and leave in dark at room temp for 20 minutes to equilibrate
Compound Dilution Plate—1×3 Dilution Series • 1) In a clear 96-well v-bottom plate—{# VWR 007/008/257} add 10 μl 100% DMSO to wells B1 to H11 • 2) To wells A1 to A11 add 17.5 μl 100% DMSO • 3) Add 2.5 μl cpd to A1. This gives 2.5 mM {50×} stock cpd—assuming cpds 20 mM. • 4) Repeat for wells A2 to A10. Control in columns 11 and 12. • 5) Transfer 5 μl from row A to row B—not column 12. Mix well. • 6) Transfer 5 μl from row B to row C. […] In column 11 {provides standard curve} only add compound B11-H11. Add 2 μl of 100 mM standard cpd to wells B12-H12 {is positive control } • 13)The Z′ factor is calculated from zero controls and positive wells. It typically gives a value of 0.7-0.9.
The compounds tested in the above assay were assigned to one of two activity ranges, namely A=<10 μM; B=>10 μM, and those assignments are reported above.
In the case of COc1ccc(CC(=O)N2CCN(c3c[nH]nc3-c3cc(Cl)c(O)cc3O)CC2)cc1 [Example 42], the IC50 is reported as over 10 µM.
In the case of CNC(=O)c1cccc(CN2CCN(c3c[nH]nc3-c3cc(Cl)c(O)cc3O)CC2)c1 [Example 44], the IC50 is reported as under 10 µM.
For CCOC(=O)CN1CCN(c2c[nH]nc2-c2cc(Cl)c(O)cc2O)CC1 [Example 45], the IC50 was under 10 µM.
O=C(O)CN1CCN(c2c[nH]nc2-c2cc(Cl)c(O)cc2O)CC1 [Example 46] showed an IC50 of under 10 µM.
Compound CC(=O)c1ccc(CN2CCN(c3c[nH]nc3-c3cc(Cl)c(O)cc3O)CC2)cc1 [Example 47] has an IC50 of under 10 µM.
In the case of O=S(=O)(c1ccsc1)N1CCN(c2c[nH]nc2-c2cc(Cl)c(O)cc2O)CC1 [Example 48], the IC50 is reported as under 10 µM.
In the case of Cc1[nH]nc(-c2cc(Cl)c(O)cc2O)c1N1CCNCC1 [Example 49, 4-Chloro-6-(5-methyl-4-piperazin-1-yl-1H-pyrazol-3-yl)-benzene-1,3-diol], the IC50 is reported as under 10 µM.
Work on OCc1[nH]nc(-c2cc(Cl)c(O)cc2O)c1N1CCNCC1 [Example 50, 4-Chloro-6-(5-hydroxymethyl-4-piperazin-1-yl-1H-pyrazol-3-yl)-benzene-1,3-diol] yielded an IC50 of under 10 µM.
CC(=O)Nc1ccc(-c2n[nH]cc2N2CCNCC2)c(O)c1 [Example 53, 3-[4-Acetamido-2-hydroxyphenyl]-4-(piperazin-1-yl)-1H-pyrazole] showed an IC50 of over 10 µM.
Compound Cc1c[nH]c2cc(O)c(-c3n[nH]cc3N3CCNCC3)cc12 [Example 54, 3-Methyl-5-(4-piperazin-1-yl-1H-pyrazol-3-yl)-1H-indol-6-ol] has an IC50 of over 10 µM.

Test system: not listed separately
Test: Sulforhodamine B (SRB) growth inhibition assay
Format: cell-based
Conditions: SRB growth arrest assay
Method: A growth inhibition assay was also employed for the evaluation of candidate HSP90 inhibitors:
Day 1 • 1) Determine cell number by haemocytometer. • 2) Using an 8 channel multipipettor, add 160 μl of the cell suspension (3600 cells/well or 2×10^4 cells/ml) to each well of a 96-well microtitre plate. • 3) Incubate overnight at 37° C. in a CO2 incubator.
Day 2 • 4) Stock solutions of drugs are prepared, and serial dilutions of each drug are performed in medium to give final concentrations in wells. • 5) Using a multipipettor, 40 μl of drug (at 5× final concentration) is added to quadruplicate wells. • 6) Control wells are at either side of the 96 well plates, where 40 μl of medium is added. • 7) Incubate plates in CO2 incubator for 4 days (48 hours).
Day 6 • 8) Tip off medium into sink and immerse plate slowly into 10% ice cold trichloroacetic acid (TCA). […] Leave for 15 mins. • 12) Wash off unbound SRB stain with four washes of 1% acetic acid. • 13) Dry plates in incubator. • 14) Solubilise SRB using 100 μl of 10 mM Tris base and put plates on plate shaker for 5 mins. • 15) Determine absorbance at 540 nm using a plate reader. Calculate mean absorbance for quadruplicate wells and express as a percentage of value for control, untreated wells. • 16) Plot % absorbance values versus log drug concentration and determine the IC50.
Oc1cc(O)c(-c2n[nH]cc2N2CCNCC2)cc1Cl [Example 2, 4-Chloro-6-(4-piperazin-1-yl-1H-pyrazol-3-yl)-benzene-1,3-diol] showed an IC50 of under 50 µM.
